Test results as given in ChEMBL document CHEMBL4385659, “Essential structure of orexin 1 receptor antagonist YNT-707, Part IV: The role of D-ring in 4,5-epoxymorphinan on the orexin 1 receptor antagonistic activity” (Bioorg Med Chem Lett, 2019).

How the values were obtained:
[1] = target: T1, Orexin/Hypocretin receptor type 1 (Homo sapiens, UniProt O43613); test: Antagonist activity at human OX1R expressed in CHOK1 cells assessed as inhibition of orexin A-induced intracellular Ca2+ release preincubated for 15 mins followed by orexin A addition by Fura 2-AM dye based fluorescence assay based by Cheng-Prusoff equation analysis; format: functional, cell-based
T1 sequence (O43613 whole entry): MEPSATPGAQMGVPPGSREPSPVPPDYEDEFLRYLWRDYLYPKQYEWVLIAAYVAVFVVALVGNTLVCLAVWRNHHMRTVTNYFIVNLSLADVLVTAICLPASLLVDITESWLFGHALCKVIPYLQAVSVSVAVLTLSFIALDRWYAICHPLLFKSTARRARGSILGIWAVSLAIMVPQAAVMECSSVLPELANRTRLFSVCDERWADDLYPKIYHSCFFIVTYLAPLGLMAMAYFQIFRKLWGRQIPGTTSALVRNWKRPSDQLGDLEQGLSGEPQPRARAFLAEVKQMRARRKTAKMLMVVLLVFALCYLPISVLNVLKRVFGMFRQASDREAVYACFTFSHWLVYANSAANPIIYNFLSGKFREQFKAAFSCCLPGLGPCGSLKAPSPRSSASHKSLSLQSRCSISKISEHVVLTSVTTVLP

[2] = target: T2, Orexin/Hypocretin receptor type 1 (Homo sapiens) (UniProt O43613); test: Antagonist activity at human OX1R expressed in CHOK1 cells assessed as inhibition of orexin A-induced intracellular Ca2+ release at 10 uM preincubated for 15 mins followed by orexin A addition by Fura 2-AM dye based fluorescence assay […]; format: functional, cell-based
T2 sequence (whole entry): T1 sequence (O43613 whole entry)

Row | SMILES | Ki [1] [µM] | inhibition [2] [%]
1 | COc1ccc2c(c1)[C@H]1C[C@H](N(C)C(=O)/C=C/c3ccoc3)CC[C@@]1(O)[C@H](N(CC1CC1)S(=O)(=O)c1ccccc1)C2 | 0.842 | 
2 | COc1ccc2c3c1O[C@H]1[C@H](N(C)C(=O)/C=C/c4ccoc4)CC[C@](O)([C@@H]31)[C@H](N(CC1CC1)S(=O)(=O)c1ccccc1)C2 | 0.101 | 
3 | COc1ccc2c3c1O[C@@H]1[C@H]3[C@@H](CC[C@H]1N(C)C(=O)/C=C/c1ccoc1)[C@H](N(CC1CC1)S(=O)(=O)c1ccccc1)C2 | 0.0209 | 
4 | COc1ccc2c3c1O[C@H]1[C@@H](N(C)C(=O)/C=C/c4ccoc4)CC[C@](O)([C@@H]31)[C@H](N(CC1CC1)S(=O)(=O)c1ccccc1)C2 |  | 11
